Source: patent US4460605A, “2-[2'-Hydroxy-3'-(1,1-dimethylpropylamino)-propoxy ]-β-phenylpropiophenone, its physiologically acceptable acid addition salts, and pharmaceutical compositions” (Helopharm W. Petrik & Co., priority 1981, dated 1984)
Structures can show the parent of a compound that is named as a salt. Where two headings read alike, the source gives them in different places.

Experiments:
model arrhythmias [1] = assay: Tests with animals having model arrhythmias (known compounds); format: in vivo; conditions: average (1-3 mg/kg) intravenous doses
[2] = tested on: CHCl3-adrenalin-model arrhythmia; assay: animal or person; format: in vivo, dog
Protocol: The antiarrhythmic effect of the compound of formula I was tested in dogs according to the method of Hapke and Prigge, Arzneim.-Forsch. (Drug Res.), loc. cit. A model arrhythmia which was essentially characterized by ventricular extrasystoles at absolute arrhythmia was produced by infusion of chloroform and adrenalin (epinephrine). At the onset of these rhythm disorders the inventive compound was injected intravenously as aqueous solution of the hydrochloride.
. […] (Drug Res.), loc. cit.

[3] = LD50 acute toxicity in dog; conditions: in vivo, iv; dog i.v.
[4] = tested on: rhythm disorders produced by occlusion of a branch of the coronary vessels; assay: Antiarrhythmic effect after oral administration, rhythm disorders by occlusion of a branch of the coronary vessels in dogs; format: in vivo, dog; conditions: 10 mg/kg intragastric
Protocol: Again in dogs, the excellent antiarrhythmic effect could be observed after oral administration too. Rhythm disorders were produced by occlusion of a branch of the coronary vessels. The inventive compound was administered intragastrically in the form of the hydrochloride the next day.

circulation parameters = assay: Circulation parameters in dogs (method of Hapke and Prigge); conditions: for Diastolic blood pressure (A. femoralis) / Heart beat rate change / Systolic blood pressure (A. femoralis) / Coronary flow volume / Left ventricular peak pressure / Maximum rate of pressure rise (dp/dt) / Peripheral blood flow volume (A. femoralis): dog
From the text: For the test method see H. J. Hapke and E. Prigge, Arzneim.-Forsch.

model arrhythmias [5] = conditions: cited from earlier work; for dose at which antiarrhythmic effect appeared: dogs, cats and rabbits
heart rate disorders = conditions: human medicine; cited from earlier work

CCC(C)NCC(O)COc1ccccc1C(=O)CCc1ccccc1 (stereo not drawn) [1-methylpropylamino]
antiarrhythmic effect (model arrhythmias [1]): practically no antiarrhythmic effect

CCC(C)(C)NCC(O)COc1ccccc1C(=O)CCc1ccccc1 (stereo not drawn) [diprafenone, 2-[2'-hydroxy-3'-(1,1-dimethylpropylamino)-propoxy]-β-phenylpropiophenone]
minimal effective dose ([2]; Canis lupus familiaris, intravenous, model arrhythmias, read-out: dose showing an antiarrhythmic effect): 0.05 mg/kg
increase of therapeutic quotient as compared to propafenone ([2]; dog, in vivo): 10-20 times

CCC(C)(C)NCC(O)COc1ccccc1C(=O)CCc1ccccc1 (stereo not drawn) [diprafenone-HCl, 2-[2'-hydroxy-3'-(1,1-dimethylpropylamino)-propoxy]-β-phenylpropiophenone-hydrochloride]
LD50 [3]: 10 mg/kg
time to full antiarrhythmic effect ([2]; dogs, 0.05 mg/kg i.v.): ≤ 45 s
antiarrhythmic effect (sinus rhythm in ECG became normal) ([2]; dogs, 0.05 mg/kg i.v., all dogs treated): fully effective
extrasystoles ([4]; 30 minutes after application): no extrasystoles could be observed
extrasystoles ([4]; for 10 minutes after application): observed unchanged
ECG ([4]; for the 24 hours observed): remained normal
effect on peripheral and coronary circulation (circulation parameters; comparable doses): does not have an effect on the peripheral and coronary circulation
Diastolic blood pressure (A. femoralis) (circulation parameters; 0.5 mg/kg i.v.): -16 mm Hg
Heart beat rate change (circulation parameters; 0.5 mg/kg i.v.): -8 min⁻¹
Systolic blood pressure (A. femoralis) (circulation parameters; 0.5 mg/kg i.v.): -13 mm Hg
Diastolic blood pressure (A. femoralis) (circulation parameters; 1.0 mg/kg i.v.): -24 mm Hg
Heart beat rate change (circulation parameters; 1.0 mg/kg i.v.): -22 min⁻¹
Systolic blood pressure (A. femoralis) (circulation parameters; 1.0 mg/kg i.v.): -17 mm Hg
Coronary flow volume (circulation parameters; 3.0 mg/kg i.v.): +56%
Diastolic blood pressure (A. femoralis) (circulation parameters; 3.0 mg/kg i.v.): -39 mm Hg
Heart beat rate change (circulation parameters; 3.0 mg/kg i.v.): -24 min⁻¹
Left ventricular peak pressure (circulation parameters; 3.0 mg/kg i.v.): -46 mm Hg
Maximum rate of pressure rise (dp/dt) (circulation parameters; 3.0 mg/kg i.v.): -30%
Systolic blood pressure (A. femoralis) (circulation parameters; 3.0 mg/kg i.v.): -45 mm Hg
heart beat rate (circulation parameters; doses of 0.5 mg/kg i.v., contrary to propafenone): reduction of the heart beat rate

CCCCNCC(O)COc1ccccc1C(=O)CCc1ccccc1 (stereo not drawn) [n-butylamino]
antiarrhythmic effect (model arrhythmias [1]): practically no antiarrhythmic effect

CCCNCC(O)COc1ccccc1C(=O)CCc1ccccc1 (stereo not drawn) [propafenone-HCl]
Coronary flow volume (circulation parameters; 1.0 mg/kg i.v.): +14%
Left ventricular peak pressure (circulation parameters; 1.0 mg/kg i.v.): -5 mm Hg
Peripheral blood flow volume (A. femoralis) (circulation parameters; 1.0 mg/kg i.v.): +10%
Coronary flow volume (circulation parameters; 3.0 mg/kg i.v.): +30%
Diastolic blood pressure (A. femoralis) (circulation parameters; 3.0 mg/kg i.v.): -40 mm Hg
Left ventricular peak pressure (circulation parameters; 3.0 mg/kg i.v.): -25 mm Hg
Maximum rate of pressure rise (dp/dt) (circulation parameters; 3.0 mg/kg i.v.): -29%
Peripheral blood flow volume (A. femoralis) (circulation parameters; 3.0 mg/kg i.v.): +36%
Systolic blood pressure (A. femoralis) (circulation parameters; 3.0 mg/kg i.v.): -30 mm Hg
Coronary flow volume (circulation parameters; 5.0 mg/kg i.v.): +43%
Left ventricular peak pressure (circulation parameters; 5.0 mg/kg i.v.): -42 mm Hg
Maximum rate of pressure rise (dp/dt) (circulation parameters; 5.0 mg/kg i.v.): -47%
Coronary flow volume (circulation parameters; 10.0 mg/kg i.v.): +67%
Diastolic blood pressure (A. femoralis) (circulation parameters; 10.0 mg/kg i.v.): -60 mm Hg
Left ventricular peak pressure (circulation parameters; 10.0 mg/kg i.v.): -70 mm Hg
Maximum rate of pressure rise (dp/dt) (circulation parameters; 10.0 mg/kg i.v.): -62%
Systolic blood pressure (A. femoralis) (circulation parameters; 10.0 mg/kg i.v.): -65 mm Hg

CCCNCC(O)COc1ccccc1C(=O)CCc1ccccc1 (stereo not drawn) [propafenone]
hemodynamic effect (model arrhythmias [5]; average (1-3 mg/kg) and higher (5 mg/kg) intravenous doses): hypotensive, negative inotropic effect and dilates the coronary arteries
dose at which antiarrhythmic effect appeared (model arrhythmias [5]; intravenous): 1 mg/kg
dose at which antiarrhythmic effect appeared (model arrhythmias [5]; oral): 2 to 10 mg/kg
heart rate (model arrhythmias [5]; doses producing an antiarrhythmic effect): not substantially affected
antiarrhythmic effect (model arrhythmias [5]; only one of the compounds of German Pat. No. 2 001 431): shows an antiarrhythmic effect
effect in therapy of heart rate disorders (heart rate disorders): antiarrhythmic with local anaesthetic, quinidine-like and also β-receptor blocking effect

CC(C)(C)NCC(O)COc1ccccc1C(=O)CCc1ccccc1 (stereo not drawn) [tert-butylamino]
antiarrhythmic effect (model arrhythmias [1]): practically no antiarrhythmic effect
